Active and inactive are the calls of the source. The rule behind the calls is not given here.
Columns and labels:
U-251 [1] = assay: Inhibition of carbonic anhydrase 9 mRNA expression in human U251 cells under hypoxic conditions at 500 nM treated prior to hypoxic-challenge by RT-PCR analysis; assay type: functional, cell-based
GAMG [2] = assay: Inhibition of carbonic anhydrase 9 protein expression in human GaMG cells under hypoxic conditions at 500 nM treated prior to hypoxic-challenge by Western blotting analysis; assay type: functional, cell-based
U-373MG ATCC [3] = assay: Inhibition of carbonic anhydrase 9 mRNA expression in human U373 cells under hypoxic conditions at 500 nM treated prior to hypoxic-challenge by RT-PCR analysis; assay type: functional, cell-based
[4] = Inhibition of carbonic anhydrase 9 protein expression in human U87MG cells under hypoxic conditions at 500 nM treated prior to hypoxic-challenge by Western blotting analysis; assay type: functional, cell-based; details: U-87MG ATCC
GAMG [5] = assay: Inhibition of carbonic anhydrase 9 mRNA expression in human GaMG cells under hypoxic conditions at 400 nM treated prior to hypoxic-challenge by RT-PCR analysis; assay type: functional, cell-based
U-87 MG [6] = assay: Inhibition of carbonic anhydrase 9 mRNA expression in human U87MG cells under hypoxic conditions at 500 nM treated prior to hypoxic-challenge by RT-PCR analysis; assay type: functional, cell-based; details: U-87MG ATCC
[7] = Inhibition of carbonic anhydrase 9 protein expression in human U373 cells under hypoxic conditions at 500 nM treated prior to hypoxic-challenge by Western blotting analysis; assay type: functional, cell-based; details: U-373MG ATCC
U-251 [8] = assay: Inhibition of carbonic anhydrase 9 protein expression in human U251 cells under hypoxic conditions at 500 nM treated prior to hypoxic-challenge by Western blotting analysis; assay type: functional, cell-based
U-87 MG [9] = details: Homo sapiens; U-87MG ATCC
Description: Inhibition of carbonic anhydrase 9 mRNA expression in human U87MG cells under hypoxic conditions at 5000 nM treated prior to hypoxic-challenge followed by compound addition 12 hrs after first treatment by RT-PCR analysis

U-373MG ATCC [10] = details: Homo sapiens
Description: Inhibition of carbonic anhydrase 9 mRNA expression in human U373 cells under hypoxic conditions at 4500 nM treated prior to hypoxic-challenge followed by compound addition 12 hrs after first treatment by RT-PCR analysis

| Structure (SMILES) | inhibition (U-251 [1]) | inhibition (GAMG [2]) | inhibition (U-373MG ATCC [3]) | inhibition [4] | inhibition (GAMG [5]) | inhibition (U-87 MG [6]) | inhibition [7] | inhibition (U-251 [8]) | inhibition (U-87 MG [9]) | inhibition (U-373MG ATCC [10]) |
| --- | --- | --- | --- | --- | --- | --- | --- | --- | --- | --- |
| CN1C(=O)[C@]2(Cc3cn([C@]45C[C@@]67SS[C@@](CO)(C(=O)N6[C@H]4Nc4ccccc45)N(C)C7=O)c4ccccc34)SS[C@@]1(CO)C(=O)N2C | Active | Active | Active | inactive | Active | Active | inactive | inactive |  |  |
| CC(=O)Nc1nnc(S(N)(=O)=O)s1 |  |  |  |  |  |  |  |  | Active | Active |
